In patent US8357700B2, “2,3-disubstituted piperidine orexin receptor antagonists” (Merck Sharp & Dohme Corp., priority 2008, dated 2013):

Assays:
orexin-1 receptor (OX1R) = target: T1, orexin-1 receptor (OX1R) (UniProt O43613); assay: radioligand binding assay, membranes from CHO cells expressing OX1 receptor; settings: CHO cell membranes
T1 sequence (O43613 1-425): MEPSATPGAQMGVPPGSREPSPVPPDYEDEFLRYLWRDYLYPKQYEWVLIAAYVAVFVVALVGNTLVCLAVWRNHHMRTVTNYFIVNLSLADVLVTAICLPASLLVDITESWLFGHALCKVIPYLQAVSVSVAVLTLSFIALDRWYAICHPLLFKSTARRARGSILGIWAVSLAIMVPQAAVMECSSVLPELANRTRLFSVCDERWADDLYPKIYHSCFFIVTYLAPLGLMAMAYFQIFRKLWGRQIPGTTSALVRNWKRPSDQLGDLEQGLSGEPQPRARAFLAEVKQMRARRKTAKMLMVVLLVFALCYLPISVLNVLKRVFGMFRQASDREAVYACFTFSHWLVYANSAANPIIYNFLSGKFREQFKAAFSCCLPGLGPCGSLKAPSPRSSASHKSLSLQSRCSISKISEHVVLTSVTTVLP
Experimental: (§1) The utility of the compounds in accordance with the present invention as orexin receptor OX1R and/or OX2R antagonists may be readily determined without undue experimentation by methodology well known in the art, including the “FLIPR Ca^2+ Flux Assay” (Okumura et al., Biochem. Biophys. Res. Comm. 280:976-981, 2001). In a typical experiment the OX1 and OX2 receptor antagonistic activity of the compounds of the present invention was determined in accordance with the following experimental method. For intracellular calcium measurements, Chinese hamster ovary (CHO) cells expressing the rat OX1 receptor or the human OX2 receptor, are grown in Iscove's modified DMEM containing 2 mM L-glutamine, […], 1% hypoxanthine-thymidine supplement, 100 U/ml penicillin, 100 ug/ml streptomycin and 10% heat-inactivated fetal calf serum (FCS). The cells are seeded at 20,000 cells/well into Becton-Dickinson black 384-well clear bottom sterile plates coated with poly-D-lysine. All reagents were from GIBCO-Invitrogen Corp. The seeded plates are incubated overnight at 37° C. and 5% CO2. Ala-6,12 human orexin-A as the agonist is prepared as a 1 mM stock solution in 1% bovine serum albumin (BSA) and diluted in assay buffer (HBSS containing 20 mM HEPES, 0.1% BSA and 2.5 mM probenecid, pH7.4) for use in the assay at a final concentration of 70 pM. Test compounds are prepared as 10 mM stock solution in DMSO, then diluted in 384-well plates, first in DMSO, then assay buffer. On the day of the assay, cells are washed 3 times with 100 ul assay buffer and then incubated for 60 min (37° C., 5% CO2) in 60 ul assay buffer containing 1 uM Fluo-4AM ester, 0.02% pluronic acid, and 1% BSA. The dye loading solution is then aspirated and cells are washed 3 times with 100 ul assay buffer. 30 ul of that same buffer is left in each well. Within the Fluorescent Imaging Plate Reader (FLIPR, Molecular Devices), test compounds are added to the plate in a volume of 25 ul, incubated for 5 min and finally 25 ul of agonist is added. Fluorescence is measured for each well at 1 second intervals for 5 minutes and the height of each fluorescence peak is compared to the height of the fluorescence peak induced by 70 pM Ala-6,12 orexin-A with buffer in place of antagonist. For each antagonist, IC50 value (the concentration of compound needed to inhibit 50% of the agonist response) is determined. Alternatively, compound potency can be assessed by a radioligand binding assay (described in Bergman et. al. Bioorg. Med. Chem. Lett. 2008, 18, 1425-1430) in which the inhibition constant (Ki) is determined in membranes prepared from CHO cells expressing either the orexin-1 (OX1) or orexin-2 (OX2) receptor. The intrinsic orexin receptor antagonist activity of a compound which may be used in the present invention may be determined by these assays.

orexin-2 receptor (OX2R) = target: T2, orexin-2 receptor (OX2R) (Homo sapiens, UniProt O43614); assay: radioligand binding assay, membranes from CHO cells expressing OX2 receptor; settings: CHO cell membranes
T2 construct: expressed in transfected cells; host or cells: CHO cells (membranes)
T2 sequence (O43614 1-444): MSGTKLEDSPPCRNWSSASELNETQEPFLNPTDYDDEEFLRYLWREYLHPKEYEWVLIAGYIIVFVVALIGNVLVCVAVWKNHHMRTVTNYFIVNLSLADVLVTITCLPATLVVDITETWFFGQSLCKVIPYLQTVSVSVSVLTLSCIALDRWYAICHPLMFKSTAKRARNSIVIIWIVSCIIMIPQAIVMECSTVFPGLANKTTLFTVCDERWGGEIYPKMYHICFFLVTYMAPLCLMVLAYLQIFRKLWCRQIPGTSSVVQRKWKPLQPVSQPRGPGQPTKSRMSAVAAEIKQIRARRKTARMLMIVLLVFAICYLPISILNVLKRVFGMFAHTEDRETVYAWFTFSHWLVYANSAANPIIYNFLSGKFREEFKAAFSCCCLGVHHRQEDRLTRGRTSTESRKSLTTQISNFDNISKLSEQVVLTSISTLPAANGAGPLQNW
Experimental: as §1

Row | Ki (orexin-1 receptor (OX1R)) | Ki (orexin-2 receptor (OX2R)) | Compound
1 | 1.1 nM | 6.4 nM | Cc1ccc(-n2nccn2)c(C(=O)N2CCC[C@@H](COc3ccc(Br)cn3)[C@@H]2C)c1 (stereo in doubt) [A-7, 5-bromo-2-({2-methyl-1-[5-methyl-2-(2H-1,2,3-triazol-2-yl)benzoyl]piperidin-3-yl}methoxy)pyridine]
2 | 2.7 nM | 7.5 nM | Cc1ccc(-n2nccn2)c(C(=O)N2CCC[C@@H](COc3cccc(Br)n3)[C@@H]2C)c1 (stereo in doubt) [A-9, 2-bromo-6-({2-methyl-1-[5-methyl-2-(2H-1,2,3-triazol-2-yl)benzoyl]piperidin-3-yl}methoxy)pyridine]
3 | 0.5 nM | 2.1 nM | Cc1ccc(-n2nccn2)c(C(=O)N2CCC[C@@H](COc3nccc4ccccc34)[C@@H]2C)c1 (stereo in doubt) [A-8, 1-({2-methyl-1-[5-methyl-2-(2H-1,2,3-triazol-2-yl)benzoyl]piperidin-3-yl}methoxy)isoquinoline]
4 | 0.6 nM | 2.6 nM | Cc1ccc(-n2nccn2)c(C(=O)N2CCC[C@@H](COc3ccnc4ccccc34)[C@@H]2C)c1 (stereo in doubt) [A-10, 4-({2-methyl-1-[5-methyl-2-(2H-1,2,3-triazol-2-yl)benzoyl]piperidin-3-yl}methoxy)quinoline]
5 | 1 nM | 39 nM | Cc1ccc(-n2nccn2)c(C(=O)N2CCC[C@@H](COc3ccccn3)[C@@H]2C)c1 [A-6]
